Experimental findings from article PMC3815685 (ACS chemical biology, 2013) are described below.

For one assay, the target named is PiCSAD (Polaribacter irgensii, UniProt A4C1C8). Briefly: decarboxylation, OPA-HPLC, partially purified enzyme. It counts as biochemical. The following applies: PBS pH 7.4, 10 μM PLP, 4 °C.
The target of another assay is T1, hCSAD (Homo sapiens, UniProt Q9Y600).
T1 sequence (Q9Y600 1-493): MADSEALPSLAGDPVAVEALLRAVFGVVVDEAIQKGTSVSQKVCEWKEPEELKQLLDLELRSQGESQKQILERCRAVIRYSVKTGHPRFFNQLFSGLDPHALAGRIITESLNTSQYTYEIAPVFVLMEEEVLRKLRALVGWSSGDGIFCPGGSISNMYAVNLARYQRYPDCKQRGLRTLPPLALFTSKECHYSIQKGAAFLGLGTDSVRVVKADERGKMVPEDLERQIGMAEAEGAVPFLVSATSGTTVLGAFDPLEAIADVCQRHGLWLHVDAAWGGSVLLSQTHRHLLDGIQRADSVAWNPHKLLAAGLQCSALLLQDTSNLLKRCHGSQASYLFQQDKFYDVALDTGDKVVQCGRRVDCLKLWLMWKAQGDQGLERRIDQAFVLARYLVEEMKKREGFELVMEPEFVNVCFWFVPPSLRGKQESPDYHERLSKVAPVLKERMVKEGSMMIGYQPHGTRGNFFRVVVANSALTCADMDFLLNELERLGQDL
Description: inhibition of CSA decarboxylation, OPA-HPLC of hypotaurine/taurine. It counts as biochemical.

As to `N[C@@H](CS(=O)O)C(=O)O` [CSA, cysteine sulfinic acid], at PiCSAD, the “decarboxylation, OPA-HPLC, partially purified enzyme” value was “showed decarboxylation of CSA but no detectable activity towards CA or L-Glu”. On hCSAD, `N[C@@H](CCC(=O)O)C(=O)O` [L-Glu, L-glutamic acid] had an IC50 of 1100 ± 100 µM.

What is called IC50 is the concentration at which inhibition is half-maximal.
